Results reported in patent US9421356B2, “Transdermal methods and systems for the delivery of corticosteroid compounds” (priority 2007, dated 2016).
Read-outs that look alike come from different tables or passages of the source.

Assays:
[1] = iontophoresis of 4 mg/ml solution, charge dosage 40-80 mA-minutes, cited from earlier work
[2] = Systemic delivery study: plasma pharmacokinetics after iontophoretic patch or subcutaneous injection; format: in vivo, domestic swine; settings: subcutaneous 6 mg; for Cmax / half-life / AUC(0-t): pig, sc; for half-life: read-out: t½ (converted)
Text: The purpose of the study was to determine the systemic plasma exposure, absorption characteristics and elimination characteristics of the active agent Dexamethasone sodium phosphate, (DexP) when administered from either a subcutaneous injection or an iontophoretic patch in domestic swine.
The patch is an active (iontophoretic) drug delivery patch which employs a low-level electrical field produced by a novel power source incorporated into the patch to “drive” the drug into the body in a pain-free manner. This system has advantages over passive patches, including more rapid and controlled delivery and the ability to deliver a wider variety of drugs.
The study entailed administration of DexP from three concurrently applied patches delivered at 150 μA, 225 μA and 300 μA over a 9 hour period in 1 male and 1 female domestic swine. Each patch contained a 10 mg/ml Dexamethasone sodium phosphate gel (2% HPMC) in the donor cell compartment, and a 0.9% saline gel (2% HPMC) in the return cell compartment. As a comparator, a subcutaneous 6 mg dose of DexP was delivered to 1 male and 1 female domestic swine. All animals were implanted with a central venous access port (Hickman catheter) prior to administration of the drug and plasma samples were obtained pre-dosing and up to 24 hours after dosing. Samples were analyzed for the presence of dexamethasone phosphate and the data tabulated and selected pharmacokinetic parameters were calculated.

[3] = in vivo, female swine (animal 8P168)
[4] = in vivo, male swine (animal 8P167)

Row | SMILES | amount of dexamethasone delivered (highest estimate) ([1]; J Pharm Compounding 2003) [milligrams] | amount of dexamethasone delivered (lowest estimate) ([1]; Petelenz 1992) [micrograms] | Cmax [2, 3] [ng/mL] | half-life [2, 3] [min] | Cmax [2, 4] [ng/mL] | AUC(0-t) ([2]; in vivo, male swine (animal 8P167), read-out: AUC(0-12)) [ng·h/mL] | half-life [2, 4] [min] | AUC(0-t) ([2]; plasma, female swine, read-out: AUC(0-14)) [ng·h/mL] | AUC(0-12) ([2]; female swine (animal 8P168)) [ng·h/mL]
1 | C[C@@H]1C[C@H]2[C@@H]3CCC4=CC(=O)C=C[C@]4(C)[C@@]3(F)[C@@H](O)C[C@]2(C)[C@@]1(O)C(=O)CO [dexamethasone] | 1.4 | 10 |  |  |  |  |  |  | 
2 | C[C@@H]1C[C@H]2[C@@H]3CCC4=CC(=O)C=C[C@]4(C)[C@@]3(F)[C@@H](O)C[C@]2(C)[C@@]1(O)C(=O)COP(=O)(O)O [DexP, Dexamethasone sodium phosphate] |  |  | 27.3 | 90 | 28.4 | 36.4 | 51 | 60.5 | 60.5
